From PMC11678869, “Functional Role of Odorant-Binding Proteins in Response to Sex Pheromone Component Z8-14:Ac in Grapholita molesta (Busck)” (Insects, 2024)

How the values were obtained:
[1] = molecular target: rGmolPBP1 (Grapholita molesta, UniProt A0A2R4SBD6); assay: Fluorescence competitive binding assay with 1-NPN probe
Description: (§1) Previous researchers have successfully expressed rGmolPBP1, rGmolPBP2, rGmolPBP3, rGmolGOBP1, and rGmolGOBP2 proteins using prokaryotic expression systems. In this article, the DNA sequences of these five GmolPBPs and GmolGOBPs, with the signal peptides removed and restriction sites on both ends, were inserted into the expression vector pET28a(+) linearized with the same restriction enzyme. These vectors were then transformed into Escherichia coli BL21(DE3) and induced by isopropyl-β-d-thiogalactoside (IPTG). Since all five recombinant proteins were expressed in inclusion bodies, they were denatured using 8 M urea and then renatured using a cysteine/cystine REDOX system. The reduced recombinant proteins were purified using an Ni-NTA His Bind Resin column (7Sea Pharmatech Co., Ltd., Shanghai, China). Non-target proteins were washed off with washing buffer (20 mM Tris-HCl (pH 7.4), 20 mM imidazole, 1 mM PMSF, and 250 mM NaCl), and then the target proteins were eluted with elution buffer (20 mM Tris-HCl (pH 7.4), 1 mM PMSF, and 250 mM NaCl) with an increasing concentration of imidazole (50, 100, and 200 mM). Five milliliters of eluents with high target protein content and low levels of contaminants were collected and placed in dialysis tubing (Coolaber, Beijing, China) with a molecular weight cut-off of 3.5 kDa to remove NaCl and imidazole. The purified soluble proteins were stored at −80 °C before use.
(§2) The binding affinities of three rGmolPBPs and two rGmolGOBPs for Z8-14:Ac were determined using an F-2700 fluorescence spectrophotometer (Hitachi, Tokyo, Japan). First, we measured the dissociation constants (Kd) of the rGmolPBPs (or rGmolGOBPs) binding to 1−NPN. Each protein was diluted to 2 μM with 20 mM Tris-HCl buffer (pH 7.4); then, 2 mL of the protein solution was transferred to a quartz cuvette and titrated with 1 mM 1−NPN to a final concentration of 1–18 μM. As the doses of 1−NPN were increased, the increasing amplitude of the fluorescence intensity decreased, and finally, the binding of the protein to 1−NPN reached saturation. The Kd values were calculated using the nonlinear regression method and the Scatchard equation. Second, we measured the inhibitory constant (Ki) of Z8-14:Ac’s competitive binding with each rGmolPBP (or rGmolGOBP) from the protein/1−NPN complex. The initial fluorescence intensity values were measured after a 2 min reaction in 2 mL solution of 20 mM Tris-HCl (pH 7.4) containing 2 µM rGmolPBP (or rGmolGOBP) protein and 2 µM 1−NPN. Then, the solution was titrated with aliquots of 1 mM Z8-14:Ac to obtain final concentrations in the range of 1–14 µM, and the fluorescence intensity value of each reaction was recorded. The Ki values were calculated using the following equation: Ki = [IC50]/(1 + [1 − NPN]/Kd) where IC50 is the concentration of Z8-14:Ac when half of the initial fluorescence intensity value of the rGmolPBP (or GmolGOBP)/1−NPN complex is replaced, [1 − NPN] represents the concentration of free 1−NPN, and Kd is the dissociation constant of the rGmolPBP (or GmolGOBP)/1−NPN complex.

[2] = molecular target: rGmolGOBP1 (Grapholita molesta, UniProt H9XTU5); assay: as above
rGmolGOBP1, sequence (H9XTU5 entry or part of it): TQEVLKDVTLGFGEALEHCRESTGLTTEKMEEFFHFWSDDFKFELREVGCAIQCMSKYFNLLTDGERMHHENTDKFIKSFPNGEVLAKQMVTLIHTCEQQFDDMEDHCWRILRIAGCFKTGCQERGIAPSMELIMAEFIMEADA
Description: as §1, §2

[3] = molecular target: rGmolGOBP2 (Grapholita molesta, UniProt H9XTU6); assay: as above
rGmolGOBP2, sequence (H9XTU6 entry or part of it): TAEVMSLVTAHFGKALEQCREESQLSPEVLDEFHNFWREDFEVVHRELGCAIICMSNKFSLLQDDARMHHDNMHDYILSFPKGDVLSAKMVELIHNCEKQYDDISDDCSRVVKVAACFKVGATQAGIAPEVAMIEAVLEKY
Description: as §1, §2

[4] = molecular target: rGmolPBP2 (wild-type) (Grapholita molesta, UniProt A0A059VC28); assay: as above
rGmolPBP2 (wild-type), sequence (A0A059VC28 entry or part of it): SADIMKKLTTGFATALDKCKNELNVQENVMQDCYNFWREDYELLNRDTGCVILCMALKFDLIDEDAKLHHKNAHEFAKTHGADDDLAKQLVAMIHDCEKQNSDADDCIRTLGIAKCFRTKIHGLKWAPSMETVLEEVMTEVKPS
Description: as §1, §2

[5] = molecular target: rGmolPBP3 (Grapholita molesta, UniProt A0A059VBP3); assay: as above
rGmolPBP3, sequence (A0A059VBP3 entry or part of it): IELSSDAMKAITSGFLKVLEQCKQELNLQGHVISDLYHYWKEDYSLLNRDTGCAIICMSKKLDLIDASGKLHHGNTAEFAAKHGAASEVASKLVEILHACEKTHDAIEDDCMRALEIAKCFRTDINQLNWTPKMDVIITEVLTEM
Description: as §1, §2

[6] = tested on: PFM male antennae; assay: Electroantennogram (EAG) analysis; parameters: species or system Grapholita funebrana; conditions: 20, 200 and 2000 μg doses
Protocol: (§3) Electroantennogram (EAG) equipment (Syntech, Hilversum, The Netherlands) was used to record the antennal responses of the OFM and PFM adults to Z8-12:Ac, E8-12:Ac, Z8-12:OH, Z8-14:Ac, and Z10-14:Ac. These sex pheromone compounds were diluted with liquid paraffin to prepare a stimulus solution of 100 μg/μL, which was subsequently diluted to 10 and 1 μg/μL. Antenna from 3-day-old OFM and 2- to 4-day-old PFM virgin males were excised at its base, with the distal part of the terminal segment being removed. Then, the treated antenna was attached to electrode holders with SpectraR360 conducting gel. A stimulus controller (model CS-55, Syntegon Technology, Waiblingen, Germany) continuously supplied a humidified air stream at a rate of 500 mL/min. Then, 20 μL of each stimulus solution was adsorbed onto a twice-folded filter paper strip (0.5 cm × 4 cm) placed on the wide section of a l mL pipette tip, which served as an odorant cartridge. Vapor stimuli were delivered by an air compressor into the constant air stream described above, flowing in a copper delivery tube (i.d. 8 mm) with the outlet positioned approximately 1 cm from the antenna. The EAG amplitude tests of the OFM and PFM males’ responses to sex pheromones started with solvent control stimuli (20 μL of liquid paraffin), followed by stimulation with 20, 200, and 2000 μg doses (20 μL of 1.0, 10.0, and 100.0 μg/μL of liquid paraffin solutions, respectively) of stimulus in sequence. The solvent control was performed at the end of the run. To control for variations among antennae, each sample was tested on 10 antennae of different males. The EAG signals and data were analyzed using EAG 2000 software (Syntech, Hilversum, The Netherlands). The corrected EAG amplitude value = absolute EAG amplitude value − (EAGck1 + EAGck2)/2, where EAGck1 and EAGck2 represent the absolute EAG amplitude values of the solvent control before and after measuring each stimulus, respectively. The relative EAG response of the OFM and PFM males to the same doses of sex pheromones were subjected to an analysis of independent sample t-test (p = 0.05) using SPSS version 23.0 (IBM).

[7] = tested on: OFM male antennae; assay: Electroantennogram (EAG) analysis; parameters: species or system Grapholita molesta; conditions: for EAG response of OFM males: 20, 200 and 2000 μg doses
Protocol: as §3

[8] = tested on: PFM males; assay: Field trapping with delta traps, pear orchard; assay type: in vivo, Grapholita funebrana
Protocol: (§4) To determine the inhibitory effects on OFM male adults and the impact on the trapping effects of PFM male adults, varying amounts of Z8-14:Ac (0, 5, 10, 25, 50, 75, 100, 125, 150 μg) or Z10-14:Ac (0, 25, 50, 100, 150, 250, 350, 450, and 550 μg) were added to rubber septa loaded with a constant dosage of the main pheromone (500 μg of Z8-12:Ac and 20 μg of E8-12:Ac) of the PFM. Trapping experiments of Z8-14:Ac were carried out in peach and pear orchards in Yan’an and Xinjiang (China), respectively. Trapping tests of Z10-14:Ac were performed in pear orchards in Xinjiang (China). Each orchard had nine plots, with three plots in one field. Each plot consisted of a linear arrangement of traps loaded with a constant dosage of the main pheromones and different percentages of the secondary pheromone Z8-14:Ac or Z10-14:Ac of the PFM. Plots in the same field were placed 30 m apart, and fields were ≥1 km apart. The traps were hung 1.4 m from the ground on a suspension bracket between two rows of peach or pear trees from 10 June to 25 July 2021 in Xinjiang and from 15 June to 30 July 2021 in Yan’an. The positions of the traps within the plot were randomly arranged. Every 5 days, counts were taken, and the traps were rotated to the adjacent position to avoid any potential position effects. The septa loaded with sex pheromone components were replaced with new ones after every 15 days of suspension. The data were analyzed using a one-way ANOVA, and the differences in the average trapping of OFM and PFM males using sex attractants containing different amounts of Z8-14:Ac or Z10-14:Ac were further analyzed using Tukey’s HSD test, both of which were performed using SPSS 23.0.

[9] = tested on: OFM males; assay: Field trapping with delta traps, pear orchard; assay type: in vivo, Grapholita molesta; conditions: pear orchard; for Inhibition Rate of OFM Males: vs 100:4:0
Protocol: as §4

[10] = Z8-12:Ac/E8-12:Ac/Z10-14:Ac 500/20/25 μg (100:4:5)
[11] = Z8-12:Ac/E8-12:Ac/Z10-14:Ac 500/20/50 μg (100:4:10)
[12] = Z8-12:Ac/E8-12:Ac/Z10-14:Ac 500/20/100 μg (100:4:20)
[13] = Z8-12:Ac/E8-12:Ac/Z10-14:Ac 500/20/150 μg (100:4:30)
[14] = Z8-12:Ac/E8-12:Ac/Z10-14:Ac 500/20/250 μg (100:4:50)
[15] = Z8-12:Ac/E8-12:Ac/Z10-14:Ac 500/20/350 μg (100:4:70)
[16] = Z8-12:Ac/E8-12:Ac/Z10-14:Ac 500/20/450 μg (100:4:90)
[17] = Z8-12:Ac/E8-12:Ac/Z10-14:Ac 500/20/550 μg (100:4:110)
[18] = more than 10% of Z10-14:Ac added to Z8-12:Ac and E8-12:Ac (100:4)

rGmolPBP1, sequence (A0A2R4SBD6 entry or part of it): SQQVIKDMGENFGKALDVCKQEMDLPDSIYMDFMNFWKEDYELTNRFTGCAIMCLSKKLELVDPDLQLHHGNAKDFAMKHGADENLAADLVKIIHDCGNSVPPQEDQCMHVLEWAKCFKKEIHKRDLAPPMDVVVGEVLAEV

c1ccc(Nc2cccc3ccccc23)cc1 [1−NPN, N-Phenyl-1-naphthylamine, reference compound]
Kd [1]: 1.29 ± 0.02 µM | Kd [2]: 5.76 ± 0.01 µM | Kd [3]: 4.32 ± 0.02 µM | Kd [4]: 1.09 ± 0.02 µM | Kd [5]: 11.24 ± 0.08 µM

CCC/C=C/CCCCCCCOC(C)=O [E8-12:Ac, (E)-8-dodecenyl acetate]
EAG response of PFM males [6]: higher sensitivity | EAG response of OFM males [7]: higher sensitivity

CCC/C=C\CCCCCCCOC(C)=O [Z8-12:Ac, (Z)-8-dodecenyl acetate]
EAG response of PFM males [6]: higher sensitivity | EAG response of OFM males [7]: higher sensitivity

CCC/C=C\CCCCCCCCCOC(C)=O [Z10-14:Ac, (Z)-10-tetradecenyl acetate]
EAG response of PFM males [6]: moderate EAG response | EAG values of OFM males compared with PFM males ([7]; 20 μg): absence of significant difference | EAG response of OFM males [7]: moderate EAG response | EAG values of OFM males compared with PFM males ([7]; 200 and 2000 μg): significantly greater than that of PFM males | Total PFM Males/Trap [8, 10]: 121.32 ± 12.10 ab Males/Trap | Total PFM Males/Trap [8, 11]: 101.39 ± 7.72 b Males/Trap | Total PFM Males/Trap [8, 12]: 102.73 ± 10.21 b Males/Trap | Total PFM Males/Trap [8, 13]: 66.08 ± 8.27 c Males/Trap | Total PFM Males/Trap [8, 14]: 62.46 ± 5.63 c Males/Trap | Total PFM Males/Trap [8, 15]: 51.35 ± 7.21cd Males/Trap | Total PFM Males/Trap [8, 16]: 41.24 ± 5.10 d Males/Trap | Total PFM Males/Trap [8, 17]: 42.33 ± 3.95 d Males/Trap | maximum reduction of the capture of PFM males [8, 18]: ≤ 71.07% | Total OFM Males/Trap [9, 10]: 125.55 ± 14.47 ab Males/Trap | Inhibition Rate of OFM Males [9, 10]: 35.04% | Total OFM Males/Trap [9, 11]: 97.92 ± 10.31 bc Males/Trap | Inhibition Rate of OFM Males [9, 11]: 49.34% | Total OFM Males/Trap [9, 12]: 83.33 ± 9.82 cd Males/Trap | Inhibition Rate of OFM Males [9, 12]: 56.89% | Total OFM Males/Trap [9, 13]: 33.56 ± 2.24 e Males/Trap | Inhibition Rate of OFM Males [9, 13]: 82.64% | Total OFM Males/Trap [9, 14]: 31.28 ± 3.22 e Males/Trap | Inhibition Rate of OFM Males [9, 14]: 83.82% | Total OFM Males/Trap [9, 15]: 37.49 ± 3.45 e Males/Trap | Total OFM Males/Trap [9, 16]: 23.64 ± 1.23 e Males/Trap | Inhibition Rate of OFM Males [9, 16]: 87.77% | Total OFM Males/Trap [9, 17]: 29.69 ± 2.18 e Males/Trap | Inhibition Rate of OFM Males [9, 17]: 84.64% | maximum reduction of the capture of OFM males [9, 18]: up to 87.77%
